# Assays:
# IκB-α kinase = IκB-α kinase inhibitory activity, in vitro kinase assay; assay type: biochemical
# p34^cdc2/cyclin B (CDC2) = target: T1, p34^cdc2/cyclin B (CDC2) (Homo sapiens, UniProt P06493); assay: CDK inhibition assay, p34cdc2/cyclin B kinase, histone H1 phosphorylation; assay type: biochemical
# T1 construct: made in house; host or cells: Sf9 insect cells (baculovirus co-infection)
# Experimental: Cyclin-dependent kinases (p34^cdc2, p33^cdk2) and cyclins (cyclin B, E) are produced in Sf9 insect cells coinfected with appropriate baculoviral constructs. The cells are harvested 68-72 hrs post infection in lysis buffer for 30 min on ice and the soluble fraction is recovered by centrifugation at 14.000 g for 10 min. The protein extract is stored at −80° C.
# Lysis buffer: 50 mM Tris pH 7.4, 150 mM NaCl, 5 mM EDTA, 20 mM NaF, 1% Tween, 1 mM DTT, 0.1 mM PMSF, leupeptine, aprotonine.
# To carry out experiments on kinetics under linear conditions, the final point test system for kinase activity measurement is used. The kinase is added to reaction mixture in such a way as to obtain linear activity with respect to the concentration of enzyme and with respect to time.
# The p34^cdc2 and p33^cdk2 kinase inhibition determination involves the use of 1 mg/ml histone H1 (Sigma, type III-S) in the presence of 15 μM [γ-^32P]ATP ([…]) (Amersham) in a final volume of 20 μl. Kinase activity is determined at 30° C. in the kinase buffer.
# Tested compounds are usually dissolved to 100 mM solutions in DMSO, final concentration of DMSO in reaction mixture never exceeds 1%. The controls contain suitable dilutions of DMSO.
# After 10 min, addition 3×SDS sample buffer stops the incubations. Phosphorylated proteins are separated electrophoretically using 12.5% SDS polyacrylamide gel. The measurement of kinase activity is done using digital image analysis.
# The kinase activity is expressed as a percentage of maximum activity, the apparent inhibition constants are determined by graphic analysis (FIG. 1).
# Kinase buffer: 50 mM Hepes pH 7.4, 10 mM MgCl2, 5 mM EGTA, 10 mM 2-glycerolphosphate, 1 mM NaF, 1 mM DTT
# T1 sequence (P06493 whole entry, species assumed): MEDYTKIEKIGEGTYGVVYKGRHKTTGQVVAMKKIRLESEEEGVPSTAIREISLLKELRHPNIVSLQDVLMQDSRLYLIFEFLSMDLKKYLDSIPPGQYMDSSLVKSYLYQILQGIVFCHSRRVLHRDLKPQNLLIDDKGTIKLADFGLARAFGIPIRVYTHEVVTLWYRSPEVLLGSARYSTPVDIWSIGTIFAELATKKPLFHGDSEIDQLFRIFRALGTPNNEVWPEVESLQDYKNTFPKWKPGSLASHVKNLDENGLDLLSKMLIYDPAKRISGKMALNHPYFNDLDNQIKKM
# T1 sequence (P14635 whole entry partner, species assumed): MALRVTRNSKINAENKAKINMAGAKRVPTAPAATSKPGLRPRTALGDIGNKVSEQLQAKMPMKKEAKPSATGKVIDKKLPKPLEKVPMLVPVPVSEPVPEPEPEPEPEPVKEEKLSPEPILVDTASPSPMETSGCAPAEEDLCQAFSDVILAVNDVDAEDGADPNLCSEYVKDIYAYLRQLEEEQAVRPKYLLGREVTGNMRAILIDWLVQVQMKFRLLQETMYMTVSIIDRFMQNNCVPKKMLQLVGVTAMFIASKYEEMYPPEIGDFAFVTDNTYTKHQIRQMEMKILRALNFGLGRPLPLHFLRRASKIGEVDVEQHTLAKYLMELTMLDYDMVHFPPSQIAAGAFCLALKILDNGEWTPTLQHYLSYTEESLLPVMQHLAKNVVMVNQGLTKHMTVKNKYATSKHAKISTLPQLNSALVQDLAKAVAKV
SMILES,IC50 (IκB-α kinase) [µM],IC50 (p34^cdc2/cyclin B (CDC2)) [µM]
CC[C@H](CO)Nc1nc(NCc2c(O)cc(OC)cc2O)c2nnn(C(C)C)c2n1,> 100,17
CC[C@H](CO)Nc1nc(NCc2cccc(OC)c2O)c2nnn(C(C)C)c2n1,75,15
CC[C@H](CO)Nc1nc(Nc2ccc(N)c(Cl)c2)c2nnn(C(C)C)c2n1,> 100,50
CC[C@H](CO)Nc1nc(Nc2ccc(C(=O)O)c(Cl)c2)c2nnn(C(C)C)c2n1,70,35
CC[C@H](CO)Nc1nc(NCc2ccccc2OC(C)=O)c2nnn(C(C)C)c2n1,> 100,19
Cc1cccc(CNc2nc(N[C@@H](CO)C(C)C)nc3c2nnn3C(C)C)c1O,55,18
CC[C@H](CO)Nc1nc(Nc2cc(N)cc(Cl)c2)c2nnn(C(C)C)c2n1,75,28
CC[C@H](CO)Nc1nc(NCc2ccc(O)c(O)c2)c2nnn(C(C)C)c2n1,> 100,40
CC(C)[C@H](CO)Nc1nc(N(C)CCc2ccc(O)c(O)c2)c2nnn(C(C)C)c2n1,> 100,
CC(C)[C@H](CO)Nc1nc(NCc2c(N)cccc2Cl)c2nnn(C(C)C)c2n1,> 100,10
CC[C@H](CO)Nc1nc(NCc2ccc(OC)c(O)c2O)c2nnn(C(C)C)c2n1,> 100,14
CC(C)[C@H](CO)Nc1nc(NCc2cc(O)c(Cl)cc2O)c2nnn(C(C)C)c2n1,> 100,8
Cn1nnc2c(Nc3cc(N)cc(Cl)c3)nc(NCCO)nc21,> 100,50
CC[C@H](CO)Nc1nc(NCc2c(N)cccc2Cl)c2nnn(C(C)C)c2n1,> 100,31
COc1cccc(CNc2nc(N[C@@H](CO)C(C)C)nc3c2nnn3C(C)C)c1O,> 100,55
CC[C@H](CO)Nc1nc(Nc2ccc(Br)cc2)c2nnn(C(C)C)c2n1,90,26
CC(C)[C@H](CO)Nc1nc(Nc2ccc(C(=O)O)c(Cl)c2)c2nnn(C(C)C)c2n1,,25
CC[C@H](CO)Nc1nc(N(C)CCc2ccc(O)c(O)c2)c2nnn(C(C)C)c2n1,> 100,> 100

SMILES,IC50 (IκB-α kinase) [µM],IC50 (p34^cdc2/cyclin B (CDC2)) [µM]
CC(C)[C@H](CO)Nc1nc(NCc2c(O)cc(Cl)cc2O)c2nnn(C(C)C)c2n1,,18
CC[C@H](CO)Nc1nc(NCc2c(O)cc(Cl)cc2O)c2nnn(C(C)C)c2n1,,12
CC[C@H](CO)Nc1nc(NCc2ccc(Cl)c(N)c2)c2nnn(C(C)C)c2n1,> 100,29
CC(C)[C@H](CO)Nc1nc(NCc2ccc(Cl)c(N)c2N)c2nnn(C(C)C)c2n1,> 100,34
CC[C@H](CO)Nc1nc(Nc2ccc(Cl)c(C(=O)O)c2)c2nnn(C(C)C)c2n1,> 100,40
CC[C@H](CO)Nc1nc(NCc2cc(O)c(Cl)cc2O)c2nnn(C(C)C)c2n1,> 100,16
CC[C@H](CO)Nc1nc(Nc2ccccc2)c2nnn(C(C)C)c2n1,70,29
CC[C@H](CO)Nc1nc(NCc2ccc(Cl)c(N)c2N)c2nnn(C(C)C)c2n1,> 100,45
CC[C@H](CO)Nc1nc(NCc2cccc(C)c2O)c2nnn(C(C)C)c2n1,80,34
CC[C@H](CO)Nc1nc(NCc2cc(O)c(OC)cc2O)c2[nH]nc(C(C)C)c2n1,> 100,12
CC(C)[C@H](CO)Nc1nc(NCc2cccc(Cl)c2O)c2nnn(C(C)C)c2n1,60,32
CC[C@H](CO)Nc1nc(Nc2ccc(Cl)cc2)c2nnn(C(C)C)c2n1,,27
CC(C)[C@H](CO)Nc1nc(NCc2ccc(Cl)c(N)c2)c2nnn(C(C)C)c2n1,> 100,30
CCC(CO)Nc1nc(NCc2cccc(Cl)c2O)c2nnn(C(C)C)c2n1 (centres unmarked),,16
CC[C@H](CO)Nc1nc(N(C)Cc2ccc(O)c(O)c2)c2nnn(C(C)C)c2n1,> 100,
CC[C@H](CO)Nc1nc(NCc2cccc(OC(C)=O)c2)c2nnn(C(C)C)c2n1,> 100,24
CC(C)[C@H](CO)Nc1nc(NCc2ccc(O)c(O)c2)c2nnn(C(C)C)c2n1,> 100,20
COc1cc(O)c(CNc2nc(N[C@@H](CO)C(C)C)nc3c2nnn3C(C)C)c(O)c1,> 100,10

# Further lines, results first:
IC50 (IκB-α kinase) [µM],IC50 (p34^cdc2/cyclin B (CDC2)) [µM],SMILES
> 100,,CN(Cc1ccc(O)c(O)c1)c1nc(NCCO)nc2c1nnn2C
48,3.7,CC(C)n1nnc2c(NCc3ccccc3)nc(NC3CCC(N)CC3)nc21 (centres unmarked)
> 100,> 100,Cn1nnc2c(Nc3ccc(Cl)c(N)c3)nc(NCCO)nc21
> 100,58,CC[C@H](CO)Nc1nc(NCc2cccc(C(C)=O)c2)c2nnn(C(C)C)c2n1
> 100,> 100,Cn1nnc2c(Nc3ccc(Br)cc3)nc(NCCO)nc21
> 100,80,CC(=O)c1cccc(CNc2nc(NCCO)nc3c2nnn3C)c1
> 100,52,Cn1nnc2c(Nc3ccc(C(=O)O)c(Cl)c3)nc(NCCO)nc21
> 100,,CC[C@H](CO)Nc1nc(NCc2ccccc2)c2nnn(C(C)C)c2n1 [2-[1(R)-Hydroxymethylpropylamino]-6-benzylamino-9-isopropyl-8-azapurine]
80,14,CC[C@H](CO)Nc1nc(NCc2ccccc2O)c2nnn(C(C)C)c2n1
> 100,37,CC[C@H](CO)Nc1nc(NCc2ccccc2C(C)=O)c2nnn(C(C)C)c2n1
50,48,CC(=O)Oc1cccc(CNc2nc(NCCO)nc3c2nnn3C)c1
> 100,> 100,Cn1nnc2c(NCc3ccccc3)nc(NCCO)nc21
> 100,22,Cn1nnc2c(NCc3c(O)cc(Cl)cc3O)nc(NCCO)nc21
50,15,CC(C)[C@H](CO)Nc1nc(NCc2ccccc2)c2nnn(C(C)C)c2n1
45,23,Cn1nnc2c(NCc3ccccc3O)nc(NCCO)nc21
40,36,CC(=O)Oc1ccccc1CNc1nc(NCCO)nc2c1nnn2C
68,52,Cn1nnc2c(NCc3c(N)cccc3Cl)nc(NCCO)nc21
> 100,95,CC(C)n1nnc2c(NCc3ccccc3)nc(N(CCO)CCO)nc21
> 100,85,Cc1cccc(CNc2nc(NCCO)nc3c2nnn3C)c1O
> 100,80,Cn1nnc2c(NC(CO)c3ccccc3)nc(NCCO)nc21 (racemic)
> 100,58,Cn1nnc2c(Nc3ccc(O)c(C(=O)O)c3)nc(NCCO)nc21

IC50 (IκB-α kinase) [µM],IC50 (p34^cdc2/cyclin B (CDC2)) [µM],SMILES
70,25,Cn1nnc2c(NCc3ccccc3)nc(NC3CCCCC3N)nc21 (centres unmarked)
> 100,> 100,Cn1nnc2c(Nc3ccc(Cl)cc3)nc(NCCO)nc21
> 100,43,Cn1nnc2c(Nc3ccc(Cl)c(C(=O)O)c3)nc(NCCO)nc21
40,17,Cn1nnc2c(NCc3cccc(O)c3)nc(NCCO)nc21
> 100,,Cn1nnc2c(NCc3ccccc3)nc(N(CCO)CCO)nc21
> 100,43,COc1cccc(CNc2nc(NCCO)nc3c2nnn3C)c1O
> 100,,CC[C@H](CO)Nc1nc(NCc2ccccc2)c2nnn(C)c2n1
> 100,> 100,CC(C)n1nnc2c(NCc3ccccc3)nc(NCCCO)nc21 [2-(3-Hydroxypropylamino)-6-benzylamino-9-isopropyl-8-azapurine]
,22,COc1cc(O)c(CNc2nc(NCCO)nc3c2nnn3C)cc1O
> 100,70,CC(=O)c1ccccc1CNc1nc(NCCO)nc2c1nnn2C
> 100,,Cn1nnc2c(Nc3cccc(Cl)c3)nc(NCCO)nc21
> 100,50,CC(C)[C@H](CO)Nc1nc(NC(CO)c2ccccc2)c2nnn(C(C)C)c2n1 (mixture of isomers)
> 100,70,Cn1nnc2c(NCc3cccc(Cl)c3O)nc(NCCO)nc21
> 100,,Cn1nnc2c(NCc3ccc(O)c(O)c3)nc(NCCO)nc21
,18.2,COc1cc(O)c(CNc2nc(NCCO)nc3c2nnn3C)c(O)c1
,50,Cn1nnc2c(NCc3ccc(Cl)c(N)c3)nc(NCCO)nc21
> 100,68,Cn1nnc2c(NCc3ccc(Cl)c(N)c3N)nc(NCCO)nc21
> 100,> 100,CC(C)n1nnc2c(NCc3ccccc3)nc(NCCO)nc21
> 100,42,Cn1nnc2c(Nc3ccccc3)nc(NCCO)nc21 [2-hydroxyethylamino / anilino / methyl]
> 100,,CCC(CO)Nc1nc(NC(CO)c2ccccc2)c2nnn(C(C)C)c2n1 (centres unmarked)

# From patent US7816350B2, “Substituted [1,2,3] triazolo[4,5-D]pyrimidines as cdk inhibitors” (Institute of Experimental Botany ASCR, priority 2002, dated 2010)
